Key:
Set-up in all cases: species or system Wistar rats
NAT2 = experiment: In vivo enzyme induction: N-acetyltransferase, procainamide; settings: rats, 20 mg/kg i.p. once daily 7 days
CYP1A = experiment: In vivo enzyme induction: ethylresorufin O-deethylase; settings: rats
CYP2A = experiment: In vivo enzyme induction: ethoxycoumarin O-deethylase; settings: rats
CYP3A = experiment: In vivo enzyme induction: erythromycin N-demethylase; settings: rats, 40 mg/kg p.o. once daily 7 days
CYP2B = experiment: In vivo enzyme induction: pentylresorufin O-depentylase; settings: rats
[1] = 40 mg/kg p.o. once daily 7 days
[2] = 40 mg/kg i.p. once daily 7 days

Structure (SMILES): C[C@@H]1C[C@H]2[C@@H]3CCC4=CC(=O)C=C[C@]4(C)[C@@]3(F)[C@@H](O)C[C@]2(C)[C@@]1(O)C(=O)CO [Dexamethasone, dexamethasone, reference compound]
- NAT2 activity compared with untreated controls (NAT2): 1.8 fold

Structure (SMILES): CCC1(c2ccccc2)C(=O)NC(=O)NC1=O [Phenobarbital, phenobarbital]
- CYP1A enzyme activity relative to control (CYP1A; [1]): 5.5 fold
- CYP2A enzyme activity relative to control (CYP2A; [1]): 2.6 fold
- CYP3A enzyme activity relative to control (CYP3A): 3.5 fold
- CYP2B enzyme activity relative to control (CYP2B; [1]): 17.7 fold

Structure (SMILES): O=c1cc(-c2ccccc2)oc2ccc3ccccc3c12 [β-naphthoflavone]
- CYP1A enzyme activity relative to control (CYP1A; [2]): 25.1 fold
- CYP2A enzyme activity relative to control (CYP2A; [2]): 15.8 fold
- CYP2B enzyme activity relative to control (CYP2B; [2]): 3.8 fold

Reference: article PMC4280904 (Journal of Veterinary Pharmacology and Therapeutics, 2014)
